melting point	SMILES
143 to 147 °C	Nn1c(S)nnc1C1CCCO1 (stereo unspecified)
54 to 56 °C	CCOc1ccc(C(C)=O)cc1[N+](=O)[O-]
183 to 185 °C	O=C(Nc1ccc(F)cc1)NC1CCNCC1
96 to 98 °C	COC(=O)c1cc(OC)c(OC(F)F)cc1[N+](=O)[O-]
268 to 270 °C	Cc1ccc2c(C(=O)CC#N)c[nH]c2c1
114 to 116 °C	O=C(O)CCCOc1ccc(Cl)cc1
55 to 57 °C	CCCOc1ccc2c(c1)OCC(C=O)=C2
119 to 121 °C	O=C(O)CSc1nccn1-c1ccc(C(F)(F)F)cc1
221 to 223 °C	O=c1cc(CO)c2ccc(O)cc2o1
131 to 133 °C	COc1ccnc(N2CCC(C(=O)O)CC2)n1
96 to 98 °C	O=C1CCCCN1c1ccc(Br)cc1F
66 to 68 °C	COc1ccc(Br)cc1NCc1cccnc1
147 to 149 °C	CC(C)(C)OC(=O)NC(C(N)=NO)C1CC1 (stereo unspecified)
309 to 311 °C	Nc1ccc(-c2c3c(=O)[nH][nH]c(=O)c3c3n2CCC3)cc1
110 to 112 °C	NC1CCN(c2ccc(F)c(Cl)c2)C1=O (stereo unspecified)
74 to 76 °C	C#CCn1nc(C)c(C)c1C
88 to 90 °C	COc1ccc(N=C=S)cc1Cl
170 to 172 °C	O=Cc1cc(Br)ccc1OCC(=O)O
52 to 54 °C	CNC(C)c1ccc(S(C)=O)cc1 (stereo unspecified)
250 to 252 °C	Cn1c(=O)cc(C(=O)O)c2ccccc21
71 to 73 °C	COc1ncncc1N
86 to 88 °C	Fc1ccccc1-c1nnc(CCl)o1
105 to 107 °C	Nc1nc2ccc(SC(F)F)cc2s1
224 to 226 °C	CC(C)c1noc2nc(-c3ccco3)cc(C(=O)O)c12

melting point	SMILES
112 to 114 °C	CC(=O)N1c2ccc(S(=O)(=O)Cl)cc2CC1C (stereo unspecified)
204 to 206 °C	CS(=O)(=O)Nc1ccc(F)cc1C(=O)O
116 to 118 °C	NC(=O)COc1cccc(CO)c1
78 to 80 °C	N#Cc1cc(N)ccc1OCC(F)(F)F
125 to 127 °C	Cc1ccc(C(=O)O)cc1NCc1ccc(Br)o1
96 to 98 °C	CC(C)c1ccc(N)c(C(=O)O)c1
183 to 185 °C	O=C(CCl)c1c[nH]c2ccccc12
289 to 291 °C	Cc1c(C(=O)O)sc2ccc(F)cc12
209 to 211 °C	CNC(=O)c1ccc(C#N)cc1
58 to 60 °C	O=C(NC1CC=CCC1)C(F)(F)F (stereo unspecified)
99 to 101 °C	CCOC(=O)CNc1cc(Cl)cc(Cl)c1
126 to 128 °C	CS(=O)(=O)Cc1cc(F)ccc1N
233 to 235 °C	O=C1NC(=O)c2cnccc21
74 to 76 °C	Cc1cc(CO)ncn1
204 to 206 °C	O=C(O)c1ccc(S(=O)(=O)Cl)cc1Br
66 to 68 °C	CC(CC(=O)O)c1ccc(F)cc1F (stereo unspecified)
169 to 171 °C	O=C(O)/C(=C\c1ccccc1)c1cccs1
58 to 60 °C	Nc1ccc(Oc2ccc(Br)cc2)cc1
119 to 121 °C	CC(C)CNC(=O)c1ccc(N)cc1
123 to 125 °C	O=C(O)COc1ccc(Cl)cc1Br
90 to 92 °C	Fc1ccccc1-c1nnc(S)n1Cc1ccccc1
91 to 93 °C	Cc1nc(Cl)c2c3c(sc2n1)CCC3
139 to 141 °C	OC(c1ccc(Cl)cc1)C1CCNCC1 (stereo unspecified)
198 to 200 °C	O=c1[nH]c(-c2cccc(F)c2)cs1

melting point	SMILES
94 to 96 °C	N#CCC(=O)c1cccc(Br)c1
174 to 176 °C	NS(=O)(=O)c1c(Br)cc(F)cc1Br
147 to 149 °C	CC1CCN(CC(=O)O)CC1
56 to 58 °C	Cc1cc(C)c(N)c(Cl)n1
85 to 87 °C	O=C(O)CCCCCN1C(=O)CSC1=S
69 to 71 °C	CCOC(=O)c1nnc(-c2ccccc2)o1
83 to 85 °C	CCC(CC(=O)O)c1ccc(OC)cc1 (stereo unspecified)
88 to 90 °C	Cc1cccc(C2CC2C(=O)O)c1 (stereo unspecified)
114 to 116 °C	Cc1ccc(Oc2ccc(N)cc2)nn1
84 to 86 °C	O=C(O)C1SCCS1
45 to 47 °C	CC1CC(=O)c2cccc(Br)c21 (stereo unspecified)
123 to 127 °C	CCN(CC)S(=O)(=O)c1ccc(N2CC(C(=O)O)CC2=O)cc1 (stereo unspecified)
253 to 257 °C	Cc1[nH]c(=O)c(C#N)c(C)c1CCC(=O)O
259 to 261 °C	CCCn1c(CCC(=O)O)nc2cc(S(N)(=O)=O)ccc21
148 to 150 °C	CC(N)c1ccc(S(N)(=O)=O)cc1 (stereo unspecified)
131 to 133 °C	Cc1c(NC(=O)CCCl)cccc1[N+](=O)[O-]
98 to 100 °C	CCOc1ccc(-c2nc(N)sc2C)cc1
139 to 141 °C	CC1=NOC(=O)C1CCC(=O)O (stereo unspecified)
152 to 154 °C	NC(=S)c1cccc(S(N)(=O)=O)c1
67 to 69 °C	C#CCn1c(C)nc2ccccc21
244 to 246 °C	Cc1cc(C)n2ncc(C(=O)NCC(=O)O)c2n1
60 to 62 °C	C#CCNS(=O)(=O)c1ccccc1
165 to 167 °C	N#Cc1ccc(N2CCN(c3ccccn3)CC2)nc1
50 to 52 °C	CC(C)c1ccc(-c2noc(CCl)n2)cc1

melting point	SMILES
64 to 66 °C	CC(C)c1cc(N)no1
228 to 230 °C	CON(C)S(=O)(=O)c1cc(C(=O)O)ccc1Cl
81 to 83 °C	CCN(CC)S(=O)(=O)c1ccc(C(C)=O)cc1
210 to 212 °C	COc1ccc(N)c(OC)n1
89 to 91 °C	OCc1nccn1CC(F)(F)F
127 to 129 °C	Nc1cc(-c2ccsc2)n[nH]1
193 to 195 °C	Cc1ccc(N2C(=O)NC(CCC(=O)O)C2=O)cc1Cl (stereo unspecified)
63 to 65 °C	Cc1ccc(C(=O)C(=O)c2ccccc2)cc1C
83 to 85 °C	O=C(c1nc2ccccc2s1)C(F)(F)F
80 to 82 °C	O=[N+]([O-])c1cc(S(=O)(=O)Cl)c(Br)cc1F
101 to 103 °C	CCC1Cc2c(Br)cccc2C(=O)N1 (stereo unspecified)
130 to 132 °C	COC(=O)C(Cc1c[nH]c2ccccc12)NC(=O)CCl (stereo unspecified)
61 to 63 °C	CC1(C)CC(NC(=O)CCl)CC(C)(C)N1
119 to 121 °C	O=C(NCC(F)(F)F)c1ccc(Br)cc1
82 to 84 °C	Nc1ccc(-n2nccn2)nc1
136 to 138 °C	N#CCC(=O)Nc1ccccc1Br
223 to 225 °C	COC(=O)c1c(C)n(C)c2ccc(O)cc12
230 to 232 °C	O=C(O)CCCNC(=O)c1ccc2[nH]nnc2c1
173 to 175 °C	O=c1cc[nH]c2c(Br)cccc12
162 to 164 °C	Cc1c(N)cccc1C(=O)N1CCCC1
137 to 139 °C	CC(C)c1ccccc1NC(N)=S
100 to 102 °C	O=C(O)CCN1C(=O)NC2(CCCCC2)C1=O
211 to 213 °C	CCn1cnnc1-c1ccc(C(=O)O)cc1
109 to 111 °C	COCc1csc(N)n1

melting point	SMILES
32 to 34 °C	COc1ccc(I)cc1F
82 to 84 °C	Cc1ccc(C#N)cc1S(=O)(=O)Cl
90 to 92 °C	Nc1cc2c(cc1Cl)OCO2
135 to 137 °C	O=C(O)C1CC(c2cc(F)ccc2F)=NO1 (stereo unspecified)
84 to 86 °C	CC(=O)c1ccc(N2CCOCC2)c(F)c1
63 to 67 °C	CCCC(C(=O)O)c1ccccc1 (stereo unspecified)
70 to 72 °C	Cn1ccnc1C(=O)c1ccc(N)cc1
192 to 194 °C	CCOC(=O)c1cc(C23CC4CC(CC(C4)C2)C3)[nH]n1
54 to 56 °C	COc1cc(CCC(=O)O)cc(OC)c1
165 to 167 °C	O=C(O)CNC(=O)c1ccoc1
151 to 153 °C	CCc1cc(N)c2cc(N)ccc2n1
62 to 64 °C	CCOC(=O)c1cc(Br)c(OC)c(S(=O)(=O)Cl)c1
136 to 138 °C	C/C(=N\OCC(=O)O)c1ccc2c(c1)OCO2
124 to 126 °C	O=C(CC1CCCCC1)NCCC1CNc2ccccc21 (stereo unspecified)
144 to 146 °C	COC(=O)c1cc2c(C)c(C)ccc2[nH]1
66 to 68 °C	NS(=O)(=O)CCCC(F)(F)F
174 to 176 °C	Nc1nc(CCl)nc2sc3c(c12)CCCCC3
197 to 199 °C	CCOC(=O)c1c(C)oc2nc(CCl)[nH]c(=O)c12
76 to 78 °C	NC(=O)CCCCCl
148 to 150 °C	CC(C)(C)c1ccc(-c2cc(N)on2)cc1
111 to 113 °C	C#CCN1C(=O)COc2ccc(Br)cc21
100 to 102 °C	COC(=O)c1ccc(S(=O)(=O)Cl)c([N+](=O)[O-])c1
119 to 121 °C	COc1ccc(C2C(CO)CCC(=O)N2C)cc1 (stereo unspecified)
148 to 150 °C	CSCC[C@H](N)C(=O)NO

melting point	SMILES
170 to 172 °C	Nc1ccncc1C(=O)C(F)(F)F
139 to 141 °C	CCc1cc(=O)[nH]c(-c2cccc(N)c2)n1
172 to 174 °C	Cc1cc(C)c(C(N)=O)c(Cl)n1
74 to 76 °C	OC(CC1COCCN1)c1ccccc1 (stereo unspecified)
74 to 76 °C	CCCCNc1nnc(C)c2ccccc12
57 to 59 °C	COc1ccc([N+](=O)[O-])cc1NS(=O)(=O)c1cc(C(=O)O)ccc1Cl
91 to 93 °C	Cn1ncc(CN)c1N
209 to 211 °C	O=C(Nc1ccc(Br)cc1)C1CCNCC1
168 to 170 °C	O=C(CCl)N1CCN(C(=O)Nc2ccccc2)CC1
94 to 98 °C	COC(=O)c1c(N)sc2c1CCCCC2
56 to 58 °C	Cc1ccc(-c2noc(CC#N)n2)cc1
166 to 168 °C	COc1ccccc1C1(C)CC1C(=O)O (stereo unspecified)
190 to 192 °C	CC1(c2ccc3ccccc3c2)NC(=O)NC1=O (stereo unspecified)
122 to 124 °C	CC(Oc1ccc(Cl)cc1Br)C(=O)O (stereo unspecified)
213 to 215 °C	Cc1nn(C)c(C)c1S(N)(=O)=O
90 to 92 °C	N#CC1(c2cccc(Br)c2)CCOCC1
247 to 249 °C	O=S(=O)(Cl)c1ccc2c(c1)S(=O)(=O)NC=N2
182 to 184 °C	NC(=O)c1cncn1-c1ccccc1
200 to 203 °C	CN1Cc2ccccc2NC1=O
179 to 181 °C	COc1ccc2ncc(=O)[nH]c2c1
171 to 173 °C	COc1ccc(S(=O)(=O)NC(CCC(N)=O)C(=O)O)cc1 (stereo unspecified)

SMILES	melting point
Cc1nc(C)c(CCl)s1	62 to 64 °C
COc1ccc(Cl)cc1CCl	44 to 46 °C
CNc1nc(N)n[nH]1	158 to 160 °C
COc1cccc(NC2=NC(C)(C)CS2)c1	105 to 107 °C
NCC(O)c1ccc(F)cc1 (stereo unspecified)	65 to 67 °C

— a melting point compilation (Tetko et al.)
